Assay results: patent US8486962B2, “Antifungal agents” (F2G Ltd., priority 2005, dated 2013)
Converted amounts (≈) assume the structure as drawn.

Columns and labels:
Aspergillus niger = experiment: MIC, YAG medium, Aspergillus niger; type: cell-based; conditions: YAG medium; for MIC: Aspergillus niger, read-out: MIC A Niger 1
How it was run: (§1)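 Broth microdilution over doubling dilutions (50-0.05 mg/L). C. albicans in RPMI with 2% glucose and 0.135M MOPS (pH7.0), 1-2×10^3 cfu/ml, 24-48 hrs at 35° C; MIC = >80% growth inhibition by OD485. Aspergillus spp. in YAG (1% glucose, 1% ammonium chloride, 0.5% yeast extract), 1-2×10^4 cfu/ml, 24 hrs, >70% inhibition.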

Aspergillus flavus = experiment: MIC, YAG medium, Aspergillus flavus; type: cell-based; conditions: YAG medium; for MIC: Aspergillus flavus, read-out: MIC A Flavus 01
How it was run: as §1

[1] = tested on: Aspergillus fumigatus AF210; experiment: MIC, YAG medium, Aspergillus fumigatus AF210; type: cell-based; conditions: YAG medium; for MIC: Aspergillus fumigatus, AF210, read-out: MIC A Fum. 210
How it was run: as §1

Aspergillus terreus = experiment: MIC, YAG medium, Aspergillus terreus; type: cell-based; conditions: YAG medium; for MIC: Aspergillus terreus, read-out: MIC A Terreus 4
How it was run: as §1

A Terreus 49 = experiment: MIC, YAG medium, A Terreus 49; type: cell-based, Aspergillus terreus; conditions: YAG medium; for MIC: Aspergillus terreus, read-out: MIC A Terreus 49
Description: Measurement of Minimum Inhibitory Concentrations (MICs)
Between 1 and 5 mgs of compound were accurately weighed out into a sterile Eppendorf tube. The compound was dissolved in DMSO to give a solution containing 5 mg/ml. Tubes were stored at −20° C. until required.
On the day of testing thawed solutions were vortex mixed to ensure homogeneity. 30 μl of solution was removed and added to 570 μl of sterile water in a separate sterile Eppendorf. The thoroughly mixed solution was used to prepare a series of doubling dilutions in water, in a deep well plate. Eleven replicate plates were prepared using a Minitrak by aspirating 20 μl from each well into eleven clear polystyrene 96 well plates.
Spores of Aspergillus spp (Aspergillus fumigatus, Aspergillus terreus, Aspergillus niger and Aspergillus flavus) were harvested from cultures grown on Sabarauds agar for 5 days, and resuspended in PBS/Tween 80 to approx 1×10^7 cfu/ml Other filamentous fungi (Fusarium solani, Scedosporium spp., Trichophyton spp., Absidia corymbifera), were grown on Sabarauds agar for 2-10 days and spores/hyphae resuspended in PBS/Tween to give approx 1×10^7 cfU/ml. Candida species (Candida albicans, Candida glabrata, Candida krusei, Candida parapsilosis and Candida tropicalis) were grown on Sabarauds agar, cells were harvested from the agar using a sterile loop and resuspended in PBS/Tween 80 to approx 1×10^6 cfu/ml. Each organism suspension was diluted in RPMI medium, containing 2% glucose and 0.135M MOPS buffer (pH7.0) to 2×10^4 cfu/ml for Aspergillus spp and other filamentous fungi and 2×10^3 cfu/ml for yeast. 80 μl of an organism suspension was added to each well of the plate containing drug dilutions.
This produced MIC plates with a drug range 50-0.05 mg/L and organism inocula of 1-2×10^4 cfu/ml for Aspergillus spp and other filamentous fungi and 1-2×10^3 cfu/ml for yeasts. All plates were incubated for 24-48 hrs at 35° C. Growth was assessed by monitoring the optical density at 485 nm for each well. The MIC of a compound is the lowest drug concentration that inhibits growth of an organism by >80% compared with a drug free control. MICs are recorded as mg/L. Other growth media can be used for susceptibility testing, and the activity of the described compounds can also be assessed in a medium comprising, 1% glucose, 1% ammonium chloride and 0.5% yeast extract (YAG medium). To perform MIC tests in this medium, dilutions of compounds are prepared in microtitre plates as described above. Fungal strains to be tested are grown and harvested in an identical manner to that described above, each organism suspension is then diluted in YAG medium to 2×10^4 cfu/ml for Aspergillus spp and other filamentous fungi and 2×10^3 cfu/ml for yeast. 80 μl of an organism suspension was added to each well of the plate containing drug dilutions. This produced MIC plates with a drug range 50-0.05 mg/L and organism inocula of 1-2×10^4 cfu/ml for Aspergillus spp and other filamentous fungi and 1-2×10^3 cfu/ml for yeasts. All plates were incubated for 24 hrs at 35° C. Growth was assessed by monitoring the optical density at 485 nm for each well. The MIC of a compound is the lowest drug concentration that inhibits growth of an organism by >70% compared with a drug free control. MICs are recorded as mg/L. In cases where the MIC of an organism is […]0.05 mg/L the MIC is repeated using a concentration range of 0.5-0.0005 mg/L. MIC tests in YAG medium have more clear-cut endpoints and have slightly lower MICS than those performed in RPMI medium.
The following organisms were tested: Aspergillus fumigatus AF293 and Aspergillus fumigatus AF210, Aspergillus niger, Aspergillus terreus, Aspergillus favus, Candida albicans, Candida krusei, Candida tropicalis, Candida glabrata, Candida parapsilosis, Trichophyton rubrum, Trichophyton mentagrophytes, Scedosporium prolificans, Scedosporium apiospermum, Absidia corymbifera, Fusarium solani.

[2] = tested on: Aspergillus fumigatus AF293; experiment: MIC, YAG medium, Aspergillus fumigatus AF293; type: cell-based; conditions: YAG medium; for MIC: Aspergillus fumigatus, AF293, read-out: MIC A Fum. 293
How it was run: as §1

Row | Compound | MIC (Aspergillus niger) [µg/mL] | MIC (Aspergillus flavus) [µg/mL] | MIC [1] [µg/mL] | MIC (Aspergillus terreus) [µg/mL] | MIC (A Terreus 49) [µg/mL] | MIC [2] [µg/mL] | MIC A Niger 1 (Aspergillus niger) [µg/mL] | MIC A Flavus 01 (Aspergillus flavus) [µg/mL] | MIC A Fum. 210 [1] [µg/mL] | MIC A Terreus 4 (Aspergillus terreus) [µg/mL] | MIC A Terreus 49 (A Terreus 49) [µg/mL] | MIC A Fum. 293 [2] [µg/mL]
1 | O=C(Nc1cc(Cl)cc(Cl)c1)C(=O)c1c(-c2ccccc2)cc2ccccn12 [Example 220, N-(3,5-Dichloro-phenyl)-2-oxo-2-(2-phenyl-indolizin-3-yl)-acetamide] | 0.062 (≈ 0.151 µM) | 0.015 (≈ 0.0367 µM) | 0.12 (≈ 0.293 µM) | 0.031 (≈ 0.0757 µM) | 0.008 (≈ 0.0195 µM) | 0.12 (≈ 0.293 µM) |  |  |  |  |  | 
2 | CC(C)c1ccc(NC(=O)C(=O)c2c(-c3ccccc3)cc3ccccn23)cc1 [Example 252, N-(4-Isopropyl-phenyl)-2-oxo-2-(2-phenyl-indolizin-3-yl)-acetamide] | 0.004 (≈ 0.0105 µM) | 0.015 (≈ 0.0392 µM) | 0.062 (≈ 0.162 µM) | 0.008 (≈ 0.0209 µM) | 0.002 (≈ 0.00523 µM) | 0.008 (≈ 0.0209 µM) |  |  |  |  |  | 
3 | COc1ccc(NC(=O)C(=O)c2c(-c3cccs3)cc3ccccn23)c(OC)c1 [Example 166, N-(2,4-Dimethoxy-phenyl)-2-oxo-2-(2-thiophen-2-yl-indolizin-3-yl)-acetamide] | 0.25 (≈ 0.615 µM) | 0.12 (≈ 0.295 µM) | 3.1 (≈ 7.63 µM) | 0.12 (≈ 0.295 µM) | 0.062 (≈ 0.153 µM) | 1.6 (≈ 3.94 µM) |  |  |  |  |  | 
4 | 2-Oxo-2-(2-pyridin-3-yl-indolizin-3-yl)-N-(3-trifluoromethyl-phenyl)-acetamide [Example 223] |  |  |  |  |  |  | 0.5 | 0.062 | 0.25 | 0.12 | 0.031 | 0.5
5 | O=C(Nc1ccc(Br)cc1)C(=O)c1c(-c2ccccc2)cc2ccccn12 [Example 204, N-(4-Bromo-phenyl)-2-oxo-2-(2-phenyl-indolizin-3-yl)-acetamide] | 0.031 (≈ 0.0739 µM) | 0.031 (≈ 0.0739 µM) | 0.25 (≈ 0.596 µM) | 0.015 (≈ 0.0358 µM) | 0.015 (≈ 0.0358 µM) | 0.25 (≈ 0.596 µM) |  |  |  |  |  | 
6 | O=C(O)COc1cccc(NC(=O)C(=O)c2c(-c3ccccc3)cc3ccccn23)c1 [Example 294, {3-[2-Oxo-2-(2-phenyl-indolizin-3-yl)-acetylamino]-phenoxy}-acetic acid] | 50 (≈ 121 µM) | 25 (≈ 60.3 µM) | > 50 | 50 (≈ 121 µM) | 25 (≈ 60.3 µM) | 25 (≈ 60.3 µM) |  |  |  |  |  | 
7 | COc1ccccc1NC(=O)C(=O)c1c(-c2ccccc2)cc2ccccn12 [Example 137, N-(2-Methoxy-phenyl)-2-oxo-2-(2-phenyl-indolizin-3-yl)-acetamide] | 0.062 (≈ 0.167 µM) | 0.125 (≈ 0.337 µM) | 0.5 (≈ 1.35 µM) | 0.06 (≈ 0.162 µM) | 0.06 (≈ 0.162 µM) | 0.2 (≈ 0.54 µM) |  |  |  |  |  | 
8 | N#Cc1cccc(-c2cc3ccccn3c2C(=O)C(=O)Nc2ccc(F)cc2F)c1 [Example 245, 2-[2-(3-Cyano-phenyl)-indolizin-3-yl]-N-(2,4-difluoro-phenyl)-2-oxo-acetamide] | 0.4 (≈ 0.997 µM) | 0.8 (≈ 1.99 µM) | 6.25 (≈ 15.6 µM) | 0.4 (≈ 0.997 µM) | 0.8 (≈ 1.99 µM) | 6.25 (≈ 15.6 µM) |  |  |  |  |  | 
9 | O=C(Nc1ccc(N2CCOCC2)cc1)C(=O)c1c(-c2ccccc2)cc2ccccn12 [Example 251, N-(4-Morpholin-4-yl-phenyl)-2-oxo-2-(2-phenyl-indolizin-3-yl)-acetamide] | 0.062 (≈ 0.146 µM) | 0.062 (≈ 0.146 µM) | 0.12 (≈ 0.282 µM) | 0.031 (≈ 0.0729 µM) | 0.015 (≈ 0.0353 µM) | 0.12 (≈ 0.282 µM) |  |  |  |  |  | 
10 | COc1ccc(NC(=O)C(=O)c2c(-c3ccc(F)cc3)cc3ccccn23)cc1 [Example 155, 2-[2-(4-Fluoro-phenyl)-indolizin-3-yl]-N-(4-methoxy-phenyl)-2-oxo-acetamide] | 0.12 (≈ 0.309 µM) | 0.03 (≈ 0.0772 µM) | 0.12 (≈ 0.309 µM) | 0.031 (≈ 0.0798 µM) | 0.008 (≈ 0.0206 µM) | 0.5 (≈ 1.29 µM) |  |  |  |  |  | 
11 | CCOC(=O)C(C)(C)NC(=O)C(=O)c1c(-c2ccccc2)cc2ccccn12 [Example 248, 2-Methyl-2-[2-oxo-2-(2-phenyl-indolizin-3-yl)-acetylamino]-propionic acid ethyl ester] | 0.4 (≈ 1.06 µM) | > 50 | 12.5 (≈ 33 µM) | 6.25 (≈ 16.5 µM) | 6.25 (≈ 16.5 µM) | 12.5 (≈ 33 µM) |  |  |  |  |  | 
12 | O=C(Nc1cccc(-c2ncco2)c1)C(=O)c1c(-c2ccccc2)cc2ccccn12 [Example 288, N-(3-Oxazol-2-yl-phenyl)-2-oxo-2-(2-phenyl-indolizin-3-yl)-acetamide] | 0.1 (≈ 0.245 µM) | 0.015 (≈ 0.0368 µM) | 0.2 (≈ 0.491 µM) | 0.008 (≈ 0.0196 µM) | 0.004 (≈ 0.00982 µM) | 0.1 (≈ 0.245 µM) |  |  |  |  |  | 
13 | CC(=O)c1cccc(NC(=O)C(=O)c2c(-c3ccccc3)cc3ccccn23)c1 [Example 267, N-(3-Acetyl-phenyl)-2-oxo-2-(2-phenyl-indolizin-3-yl)-acetamide] | 0.4 (≈ 1.05 µM) | 0.05 (≈ 0.131 µM) | 0.8 (≈ 2.09 µM) | 0.1 (≈ 0.261 µM) | 0.05 (≈ 0.131 µM) | 0.4 (≈ 1.05 µM) |  |  |  |  |  | 
14 | O=C(Nc1ccc(F)cc1F)C(=O)c1c(-c2cccc(F)c2)cc2ccccn12 [Example 244, N-(2,4-Difluoro-phenyl)-2-[2-(3-fluoro-phenyl)-indolizin-3-yl]-2-oxo-acetamide] | 0.05 (≈ 0.127 µM) | 0.2 (≈ 0.507 µM) | > 50 | 0.2 (≈ 0.507 µM) | 0.1 (≈ 0.254 µM) | > 50 |  |  |  |  |  | 
15 | Cc1ccc(NC(=O)C(=O)c2c(-c3cccnc3)cc3ccccn23)cc1 [Example 173, 2-Oxo-2-(2-pyridin-3-yl-indolizin-3-yl)-N-p-tolyl-acetamide] | 0.5 (≈ 1.41 µM) | 0.12 (≈ 0.338 µM) | 0.4 (≈ 1.13 µM) | 0.12 (≈ 0.338 µM) | 0.12 (≈ 0.338 µM) | 0.5 (≈ 1.41 µM) |  |  |  |  |  | 
16 | O=C(Nc1ccc(F)cc1F)C(=O)c1c(-c2ccccc2Cl)cc2ccccn12 [Example 277, 2-[2-(2-Chloro-phenyl)-indolizin-3-yl]-N-(2,4-difluoro-phenyl)-2-oxo-acetamide] | 0.03 (≈ 0.073 µM) | 0.03 (≈ 0.073 µM) | 0.05 (≈ 0.122 µM) | 0.015 (≈ 0.0365 µM) | 0.2 (≈ 0.487 µM) | 0.4 (≈ 0.974 µM) |  |  |  |  |  | 
17 | COc1ccc(NC(=O)C(=NOCCN(C)C)c2c(-c3ccccc3)cc3ccccn23)cc1 (mixture of isomers) [Example 295, 2-[(E/Z)-2-Dimethylamino-ethoxyimino]-N-(4-methoxy-phenyl)-2-(2-phenyl-indolizin-3-yl)-acetamide] |  |  |  |  |  |  | 25 | 12.5 | 50 | 6.25 | 6.25 | >50
18 | CCCCOC(=O)c1ccc(NC(=O)C(=O)c2c(-c3ccccc3)cc3ccccn23)cc1 [Example 144, 4-[2-Oxo-2-(2-phenyl-indolizin-3-yl)-acetylamino]-benzoic acid butyl ester] | 0.008 (≈ 0.0182 µM) | 0.015 (≈ 0.0341 µM) | 0.062 (≈ 0.141 µM) | 0.062 (≈ 0.141 µM) | 0.008 (≈ 0.0182 µM) | 0.06 (≈ 0.136 µM) |  |  |  |  |  | 
19 | O=C(Nc1ccc(Nc2nccs2)cc1)C(=O)c1c(-c2ccccc2)cc2ccccn12 [Example 285, 2-Oxo-2-(2-phenyl-indolizin-3-yl)-N-[4-(thiazol-2-ylamino)-phenyl]-acetamide] | 0.05 (≈ 0.114 µM) | 0.05 (≈ 0.114 µM) | 0.8 (≈ 1.82 µM) | 0.05 (≈ 0.114 µM) | 0.03 (≈ 0.0684 µM) | 0.4 (≈ 0.912 µM) |  |  |  |  |  | 
